# Values of other authors, collected in US9439853B2, “Form of administration of enkephalinase inhibitor” (BIOPROJET, priority 2010, dated 2016).
# Settings: for ondansetron the water phase of the suspension
row,SMILES,solubility in water
1,CC(=O)SCC(Cc1ccccc1)C(=O)NCC(=O)OCc1ccccc1 (centres unmarked) [Racecadotril],insoluble in water
2,Cc1nccn1CC1CCc2c(c3ccccc3n2C)C1=O (centres unmarked) [ondansetron],soluble in the water phase of the suspension
